Source: PubChem BioAssay AID1963985 (Molecular Pharmacology Branch, DTP, NCI, 2024)
One block for each compound: values may come before it.

Test system: 252836-082-R-J2-PDC tumor spheroids, viability
Experiment: Anticancer human tumor 252836-082-R-J2-PDC patient-derived head and neck squamous cell carcinoma cell line growth inhibition [PI3K]
Conditions: spheroids with HUVEC and MSC; for IC50: curve of first compound; for viability, T/C: stronger effect = lower value
In short: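 High-throughput combination screen: PI3K inhibitors crossed with targeted small molecules on complex spheroids of tumor cells, HUVEC and MSCs at 37 degrees C, 5% CO2. Top concentration was at or near clinical Cmax (otherwise 10 microM), with half-log decrements.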

[1] = second compound 0.00316 µM, first compound 0.0316 µM
[2] = second compound 0.00316 µM, first compound 0.1 µM
[3] = second compound 0.00316 µM, first compound 0.316 µM
[4] = second compound 0.00316 µM, first compound 1 µM
[5] = second compound 0.01 µM, first compound 0.0316 µM
[6] = second compound 0.01 µM, first compound 0.1 µM
[7] = second compound 0.01 µM, first compound 0.316 µM
[8] = second compound 0.01 µM, first compound 1 µM
[9] = second compound 0.0316 µM, first compound 0.0316 µM
[10] = second compound 0.0316 µM, first compound 0.1 µM
[11] = second compound 0.0316 µM, first compound 0.316 µM
[12] = second compound 0.0316 µM, first compound 1 µM
[13] = second compound 0.1 µM, first compound 0.0316 µM
[14] = second compound 0.1 µM, first compound 0.1 µM
[15] = second compound 0.1 µM, first compound 0.316 µM
[16] = second compound 0.1 µM, first compound 1 µM
[17] = second compound 0.316 µM, first compound 0.0316 µM
[18] = second compound 0.316 µM, first compound 0.1 µM
[19] = second compound 0.316 µM, first compound 0.316 µM
[20] = second compound 0.316 µM, first compound 1 µM
[21] = second compound 1 µM, first compound 0.0316 µM
[22] = second compound 1 µM, first compound 0.1 µM
[23] = second compound 1 µM, first compound 0.316 µM
[24] = second compound 1 µM, first compound 1 µM
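Further: spheroids exposed to agents for seven days before readout.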
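Wherever viability, T/C is given: percent of vehicle DMSO control viability so 100% = untreated growth.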

IC50 (second compound 0.00316 µM): 1040 nM
IC50 (second compound 0.01 µM): 566 nM
IC50 (second compound 0.0316 µM): 285 nM
IC50 (second compound 0.1 µM): < 31.6 nM
IC50 (second compound 0.316 µM): < 31.6 nM
IC50 (second compound 1 µM): < 31.6 nM
SMILES: CC(C)NCC(C(=O)N1CCN(c2ncnc3c2C(C)CC3O)CC1)c1ccc(Cl)cc1 (centres undefined) + COc1c(OCCCN2CCOCC2)ccc2c3n(c(=NC(=O)c4cnc(N)nc4)nc12)CCN3
viability, T/C [1]: 82.9%
viability, T/C [2]: 77.9%
viability, T/C [3]: 64.8%
viability, T/C [4]: 50.6%
viability, T/C (second compound 0.00316 µM, first compound 3.16 µM): 34.6%
viability, T/C (second compound 0.00316 µM, first compound 10 µM): 20.3%
viability, T/C [5]: 71.2%
viability, T/C [6]: 64.3%
viability, T/C [7]: 59.7%
viability, T/C [8]: 41.3%
viability, T/C (second compound 0.01 µM, first compound 3.16 µM): 26.4%
viability, T/C (second compound 0.01 µM, first compound 10 µM): 15.4%
viability, T/C [9]: 56.2%
viability, T/C [10]: 56.4%
viability, T/C [11]: 47.2%
viability, T/C [12]: 40%
viability, T/C (second compound 0.0316 µM, first compound 3.16 µM): 21.9%
viability, T/C (second compound 0.0316 µM, first compound 10 µM): 11.6%
viability, T/C [13]: 36.6%
viability, T/C [14]: 30.3%
viability, T/C [15]: 26%
viability, T/C [16]: 24.7%
viability, T/C (second compound 0.1 µM, first compound 3.16 µM): 17.1%
viability, T/C (second compound 0.1 µM, first compound 10 µM): 10.2%
viability, T/C [17]: 14.3%
viability, T/C [18]: 13.8%
viability, T/C [19]: 11.6%
viability, T/C [20]: 12.8%
viability, T/C (second compound 0.316 µM, first compound 3.16 µM): 8.52%
viability, T/C (second compound 0.316 µM, first compound 10 µM): 5.44%
viability, T/C [21]: 4.96%
viability, T/C [22]: 3.28%
viability, T/C [23]: 5.23%
viability, T/C [24]: 4.34%
viability, T/C (second compound 1 µM, first compound 3.16 µM): 3.37%
viability, T/C (second compound 1 µM, first compound 10 µM): 3.42%

IC50 (second compound 0.00316 µM): > 1000 nM
IC50 (second compound 0.01 µM): > 1000 nM
IC50 (second compound 0.0316 µM): > 1000 nM
IC50 (second compound 0.1 µM): < 3.16 nM
IC50 (second compound 0.316 µM): < 3.16 nM
IC50 (second compound 1 µM): < 3.16 nM
SMILES: CCN1CCN(Cc2ccc(Nc3ncc(F)c(-c4cc(F)c5nc(C)n(C(C)C)c5c4)n3)nc2)CC1 + COc1c(OCCCN2CCOCC2)ccc2c3n(c(=NC(=O)c4cnc(N)nc4)nc12)CCN3
viability, T/C (second compound 0.00316 µM, first compound 0.00316 µM): 86.4%
viability, T/C (second compound 0.00316 µM, first compound 0.01 µM): 80.1%
viability, T/C [1]: 97.1%
viability, T/C [2]: 85.4%
viability, T/C [3]: 91.6%
viability, T/C [4]: 82.6%
viability, T/C (second compound 0.01 µM, first compound 0.00316 µM): 75.8%
viability, T/C (second compound 0.01 µM, first compound 0.01 µM): 75.2%
viability, T/C [5]: 82.5%
viability, T/C [6]: 80.8%
viability, T/C [7]: 72.6%
viability, T/C [8]: 78%
viability, T/C (second compound 0.0316 µM, first compound 0.00316 µM): 56.2%
viability, T/C (second compound 0.0316 µM, first compound 0.01 µM): 59%
viability, T/C [9]: 55.4%
viability, T/C [10]: 57%
viability, T/C [11]: 55.5%
viability, T/C [12]: 47%
viability, T/C (second compound 0.1 µM, first compound 0.00316 µM): 34.6%
viability, T/C (second compound 0.1 µM, first compound 0.01 µM): 34.9%
viability, T/C [13]: 31.2%
viability, T/C [14]: 29.7%
viability, T/C [15]: 33.9%
viability, T/C [16]: 32.4%
viability, T/C (second compound 0.316 µM, first compound 0.00316 µM): 14.1%
viability, T/C (second compound 0.316 µM, first compound 0.01 µM): 15.2%
viability, T/C [17]: 12.4%
viability, T/C [18]: 13.1%
viability, T/C [19]: 17.7%
viability, T/C [20]: 14.9%
viability, T/C (second compound 1 µM, first compound 0.00316 µM): 4.92%
viability, T/C (second compound 1 µM, first compound 0.01 µM): 3.69%
viability, T/C [21]: 3.43%
viability, T/C [22]: 4.13%
viability, T/C [23]: 5.78%
viability, T/C [24]: 8.31%
